Data as given in patent US20080221082A1, “Ligands of Integrin Receptors” (priority 2000, published 2008).

Key:
[1] = biological target: T1, integrin αvβ3 (Homo sapiens, UniProt P05106+P06756); assay: Integrin αvβ3 assay (competition between vitronectin and the test substance for binding to solid phase-bound integrin αvβ3); details: integrin αvβ3 from human placenta; human vitronectin as competing ligand; result in words only
T1 construct: from tissue; host or cells: human placenta
Experimental: For the identification and assessment of integrin αvβ3 ligands, a test system was used which was based on competition between the natural integrin αvβ3 ligand vitronectin and the test substance for binding to solid phase-bound integrin αvβ3.
• Microtiter plates coated with 250 ng/ml of integrin αvβ3 in 0.05 M NaHCO3 pH 9.2; 0.1 ml/well; • saturation with 1% powdered milk/assay buffer; 0.3 ml/well; 0.5 h/RT • 3× washing with 0.05% Tween 20/assay buffer • test substance in 0.1% powdered milk/assay buffer, 50 μl/well+0 μg/ml or 2 μg/ml of human vitronectin (Boehringer Ingelheim T007) in 0.1% powdered milk/assay buffer, 50 μl/well; 1 h/RT • 3× washing with 0.05% Tween 20/assay buffer • 1 μg/ml of anti human vitronectin antibody coupled to peroxidase (Kordia SAVN-APHRP) in 0.1% powdered milk/assay buffer; 0.1 ml/well; 1 h/RT • 3× washing with 0.05% Tween 20/assay buffer • 0.1 ml/well of peroxidase substrate • stop reaction with 0.1 ml/well of 2 M H2SO4 • measurement of the absorption at 450 nm
Integrin αvβ3: Human placenta is solubilized with Nonidet and integrin αvβ3 affinity-purified on a GRGDSPK matrix (elution with EDTA). Impurities due to integrin αIIbβ3 and human serum albumin, and the detergent and EDTA are removed by anion-exchange chromatography.
Assay buffer: 50 mM Tris pH 7.5; 100 mM NaCl; 1 mM CaCl2; 1 mM MgCl2; 10 μM MnCl2 […]

**Q.** With `O=C(O)CC1CCC(=O)N(CC(=O)NCc2ccc(-c3nc4ccccc4[nH]3)cc2)c2ccccc21` (centres unmarked) [Example VII, [1-(2-{[4-(1H-Benzimidazol-2-yl)benzyl]amino}-2-oxoethyl)-2-oxo-2,3,4,5-tetrahydro-1H-1-benzazepin-5-yl]acetic acid] as the compound, how does the “IC50 values (concentration of the ligand at which 50% of the ligand is displaced)” value [1] read?
**A.** best result

**Q.** With `CC(C)(C)OC(=O)CC1CCC(=O)N(CC(=O)NCc2ccc(Nc3nc4ccccc4[nH]3)cc2)c2ccccc21` (centres unmarked) [Example 99, tert-Butyl [1-(2-{[4-(1H-benzimidazole-2-ylamino)benzyl]amino}-2-oxoethyl)-2-oxo-2,3,4,5-tetrahydro-1H-1-benzazepine-5-yl]acetate] as the compound, how does the melting point read?
**A.** 231 °C (dec.)
